According to patent publication US20040242426A1, “New derivatives of substituted anilined with herbicidal activity” (priority 2001, published 2004):

Tests used:
Type in all cases: in vivo
[1] = tested on: Galium aparine (GA); assay: Herbicidal activity in pre-emergence; details: dose 500 g/ha, 28 days after treatment, damage scale 0-5 vs blank
Description: (§1) Determination of the herbicidal activity and phytotoxicity in pre-emergence. The herbicidal activity of the compounds of the invention in pre-emergence was evaluated according to the following operating procedure. The vegetable species of interest (weeds or crops) were planted in vases having a diameter of over 10 cm, a height of 10 cm and containing sandy soil. 10 vases were used for each vegetable species. The vases were divided into a further two groups each containing 5 vases for each weed or crop. 24 hours after planting, the vases were dampened with a light shower. An hour after wetting, the first group of vases was treated with a hydro-acetone dispersion containing acetone at 10% v, the product to be evaluated at the desired concentration and Tween 20 at 0.5%. The second group was only treated with a hydroacetone solution containing acetone at 10% by volume and Tween 20 at 0.5%, and was used as a comparison (blank). After the treatment, all the vases were uniformly watered and kept in a conditioned environment under the following environmental conditions: temperature: 24° C. relative humidity: 60% photoperiod: 16 hours light intensity: 10,000 lux 28 days after treatment, the herbicidal activity was evaluated on the basis of the following scale of values referring to the percentage of damage measured on the treated plants with respect to those not treated (blank): Table 3 indicates the results obtained with compounds C-1, C-2 and C-3, evaluated at a dose of 500 g/ha on the following vegetable species: Amarantus retroflexus (AR), Capsella bursa pastoris (CP), Chenopodium album (CA), Galium aparine (GA), Matricaria chamomilla (MC), Papaver rhoeas (PR), Portulaca oleracea (PO), Stellaria media (SM), Alopecurus myosuroides (AM), Panicum dicothomiflorum (PD), maize (M), wheat (F).

[2] = tested on: Chenopodium album (CA); assay: Herbicidal activity in pre-emergence; details: dose 500 g/ha, 28 days after treatment, damage scale 0-5 vs blank
Description: as §1

[3] = tested on: Panicum dicothomiflorum (PD); assay: Herbicidal activity in pre-emergence; details: dose 500 g/ha, 28 days after treatment, damage scale 0-5 vs blank
Description: as §1

[4] = tested on: Capsella bursa pastoris (CP); assay: Herbicidal activity in pre-emergence; details: dose 500 g/ha, 28 days after treatment, damage scale 0-5 vs blank
Description: as §1

[5] = tested on: Alopecurus myosuroides (AM); assay: Herbicidal activity in pre-emergence; details: dose 500 g/ha, 28 days after treatment, damage scale 0-5 vs blank
Description: as §1

[6] = tested on: Stellaria media (SM); assay: Herbicidal activity in pre-emergence; details: dose 500 g/ha, 28 days after treatment, damage scale 0-5 vs blank
Description: as §1

[7] = tested on: Amarantus retroflexus (AR); assay: Herbicidal activity in pre-emergence; details: dose 500 g/ha, 28 days after treatment, damage scale 0-5 vs blank
Description: as §1

[8] = tested on: Matricaria chamomilla (MC); assay: Herbicidal activity in pre-emergence; details: dose 500 g/ha, 28 days after treatment, damage scale 0-5 vs blank
Description: as §1

[9] = tested on: Papaver rhoeas (PR); assay: Herbicidal activity in pre-emergence; details: dose 500 g/ha, 28 days after treatment, damage scale 0-5 vs blank
Description: as §1

[10] = tested on: Portulaca oleracea (PO); assay: Herbicidal activity in pre-emergence; details: dose 500 g/ha, 28 days after treatment, damage scale 0-5 vs blank
Description: as §1

[11] = tested on: wheat (F); assay: Phytotoxicity in pre-emergence; details: wheat (crop), dose 500 g/ha, 28 days after treatment, damage scale 0-5 vs blank
Description: (§2) Determination of the herbicidal activity and phytotoxicity in pre-emergence. The herbicidal activity of the compounds of the invention in pre-emergence was evaluated according to the following operating procedure. The vegetable species of interest (weeds or crops) were planted in vases having a diameter of over 10 cm, a height of 10 cm and containing sandy soil. 10 vases were used for each vegetable species. The vases were divided into a further two groups each containing 5 vases for each weed or crop. 24 hours after planting, the vases were dampened with a light shower. An hour after wetting, the first group of vases was treated with a hydro-acetone dispersion containing acetone at 10% v, the product to be evaluated at the desired concentration and Tween 20 at 0.5%. The second group was only treated with a hydroacetone solution containing acetone at 10% by volume and Tween 20 at 0.5%, and was used as a comparison (blank). […]

[12] = tested on: maize (M); assay: Phytotoxicity in pre-emergence; details: maize (crop), dose 500 g/ha, 28 days after treatment, damage scale 0-5 vs blank
Description: as §2

Structure (SMILES)	Herbicidal activity in pre-emergence, GA [1]	Herbicidal activity in pre-emergence, CA [2]	Herbicidal activity in pre-emergence, PD [3]	Herbicidal activity in pre-emergence, CP [4]	Herbicidal activity in pre-emergence, AM [5]	Herbicidal activity in pre-emergence, SM [6]	Herbicidal activity in pre-emergence, AR [7]	Herbicidal activity in pre-emergence, MC [8]	Herbicidal activity in pre-emergence, PR [9]	Herbicidal activity in pre-emergence, PO [10]	Herbicidal activity (phytotoxicity) in pre-emergence, F [11]	Herbicidal activity (phytotoxicity) in pre-emergence, M [12]
Cc1ccc(NC(=O)C2CC2)c(OCc2cccc(C(F)(F)F)c2)c1 [C-1, N-[4-methyl-2-(3-trifluoromethylphenyl)-methoxyphenyl]cyclopropanecarboxamide]	5 (5=90% damage—death of the plant)	5 (5=90% damage—death of the plant)	5 (5=90% damage—death of the plant)	5 (5=90% damage—death of the plant)	5 (5=90% damage—death of the plant)	5 (5=90% damage—death of the plant)	5 (5=90% damage—death of the plant)	5 (5=90% damage—death of the plant)	5 (5=90% damage—death of the plant)	5 (5=90% damage—death of the plant)		
Cc1ccc(NC(=O)C2CC2)c(COc2cccc(C(F)(F)F)c2)c1 [C-2, N-[4-methyl-2-(3-trifluoromethylphenoxy)methylphenyl]cyclopropanecarboxamide]	5 (5=90% damage—death of the plant)	5 (5=90% damage—death of the plant)	5 (5=90% damage—death of the plant)	5 (5=90% damage—death of the plant)	5 (5=90% damage—death of the plant)	5 (5=90% damage—death of the plant)	5 (5=90% damage—death of the plant)	5 (5=90% damage—death of the plant)	5 (5=90% damage—death of the plant)	5 (5=90% damage—death of the plant)	0 (0=0-9% damage)	0 (0=0-9% damage)
